Measurements taken from ChEMBL document CHEMBL3046738, “Quinolactacide, a new quinolone insecticide from Penicillium citrinum Thom F 1539” (Biosci Biotechnol Biochem, 2005).

Key:
Myzus persicae = assay: Insecticidal activity against Myzus persicae (green peach aphid) infested two-leaf stage of cabbage plants assessed as mortality at 250 ppm applied as spray after 4 days relative to untreated control; assay type: functional; settings: 96 h
[1] = Solubility of the compound in ethyl acetate; assay type: physicochemical
[2] = Solubility of the compound in chloroform; assay type: physicochemical
[3] = Solubility of the compound in DMSO; assay type: physicochemical
[4] = Solubility of the compound in methanol; assay type: physicochemical

In the case of `O=C1c2c([nH]c3ccccc3c2=O)-c2cccn21` [QUINOLACTACIDE], the mortality at 250 ppm (Myzus persicae) is reported as 88%, the solubility [1] is reported as “Insoluble” and the solubility [2] is reported as “Insoluble”. For the same compound, the solubility [3] was “soluble” and the solubility [4] was “Insoluble”.
